Active and inactive are the calls of the source. The calls are words filed in the database; no cut-off is given here.
Experiments:
[1] = target: T1, Receptor-type tyrosine-protein kinase FLT3 (Homo sapiens, UniProt P36888); assay: Inhibition of FLT3 (unknown origin)
T1 sequence (P36888 whole entry): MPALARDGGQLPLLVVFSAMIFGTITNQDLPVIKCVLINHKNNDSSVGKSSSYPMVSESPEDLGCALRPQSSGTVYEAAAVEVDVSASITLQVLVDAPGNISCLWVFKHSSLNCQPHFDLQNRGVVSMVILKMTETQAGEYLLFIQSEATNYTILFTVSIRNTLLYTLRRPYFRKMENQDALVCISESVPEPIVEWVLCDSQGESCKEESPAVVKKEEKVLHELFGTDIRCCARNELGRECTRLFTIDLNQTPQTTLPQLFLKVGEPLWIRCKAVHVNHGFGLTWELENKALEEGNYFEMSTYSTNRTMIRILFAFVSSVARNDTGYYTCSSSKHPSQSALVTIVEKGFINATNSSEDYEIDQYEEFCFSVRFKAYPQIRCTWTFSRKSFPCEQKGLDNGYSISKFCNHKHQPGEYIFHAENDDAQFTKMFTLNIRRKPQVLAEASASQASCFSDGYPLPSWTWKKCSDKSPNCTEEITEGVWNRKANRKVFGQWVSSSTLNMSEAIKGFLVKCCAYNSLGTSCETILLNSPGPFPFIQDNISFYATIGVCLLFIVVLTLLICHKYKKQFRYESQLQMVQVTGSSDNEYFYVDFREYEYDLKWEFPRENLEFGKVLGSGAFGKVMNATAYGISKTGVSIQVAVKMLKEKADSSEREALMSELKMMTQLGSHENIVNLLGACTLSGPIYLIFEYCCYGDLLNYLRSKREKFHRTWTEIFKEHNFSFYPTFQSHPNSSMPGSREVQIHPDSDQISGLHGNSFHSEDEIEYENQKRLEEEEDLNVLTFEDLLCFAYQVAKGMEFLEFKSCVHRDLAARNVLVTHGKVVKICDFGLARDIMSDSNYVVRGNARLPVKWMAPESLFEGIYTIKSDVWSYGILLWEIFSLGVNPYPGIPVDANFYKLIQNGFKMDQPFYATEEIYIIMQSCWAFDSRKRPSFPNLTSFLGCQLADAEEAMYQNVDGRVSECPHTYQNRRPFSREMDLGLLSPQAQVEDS

[2] = target: Proto-oncogene tyrosine-protein kinase receptor Ret (Homo sapiens, UniProt P07949); assay: Inhibition of Ret (unknown origin)
[3] = Cmax in nu/nu mouse at 20 mg/kg, ip by LCMS analysis; format: ADME, organism-based; settings: in vivo
[4] = test system: CA46; assay: Inhibition of camptothecin induced DNA damage in mutated human CA46 cells assessed as increase in mitotic index by measuring histone H3 phosphorylation at S10 residue at 0.001 to 1 uM measured after 16 hrs presence of nocodazole by dot blot assay; format: functional, cell-based; settings: CA46, 16 h
[5] = test system: HT-29; assay: Inhibition of gemcitabine induced cell cycle arrest in human HT-29 cells assessed as increase in G2-M cell population pretreated with gemcitabine followed by compound treatment and measured after 10 to 48 hrs by flow cytometry analysis; format: functional, cell-based; settings: time 10-48 hrs
[6] = test system: HT-29; assay: Induction of apoptosis in gemcitabine induced human HT-29 cells assessed as apoptotic cell death measured after 10 hrs by PI staining based flow cytometry analysis (reference value: 0.6%); format: functional
[7] = test system: HT-29; assay: Cytotoxicity in human HT-29 cells assessed as cell survival at 360 nM measured after 4 to 48 hrs by coulter counter method relative to control; format: functional; settings: time 4-48 hrs, read-out: Activity
[8] = test system: HT-29; assay: Cytotoxicity in human HT-29 cells assessed as cell survival at 540 nM measured after 4 to 48 hrs by coulter counter method relative to control; format: functional; settings: time 4-48 hrs, read-out: Activity
[9] = test system: HT-29; assay: Antiproliferative activity against human HT-29 cells deficit of p53 expression assessed as inhibition of cell growth measured after 96 hrs by MTT assay; format: functional, cell-based; settings: HT-29, 96 h
[10] = test system: COLO 205; assay: Potentiation factor, ratio of IC50 for human COLO 205 cells to IC50 for human COLO 205 cells in presence of SN-38; format: functional
[11] = test system: PC-3; assay: Potentiation factor, ratio of IC50 for human PC-3 cells to IC50 for human PC-3 cells in presence of doxorubicin; format: functional
[12] = test system: MDA-MB-231; assay: Potentiation factor, ratio of IC50 for human MDA-MB-231 cells to IC50 for human MDA-MB-231 cells in presence of SN-38; format: functional
[13] = test system: K562; assay: Potentiation factor, ratio of IC50 for human K562 cells to IC50 for human K562 cells in presence of carboplatin; format: functional
[14] = test system: HT-29; assay: Upregulation of cyclin B level in gemcitabine induced human HT-29 cells at 360 nM measured after 10 hrs by immunoblot analysis; format: functional, cell-based
[15] = test system: HT-29; assay: Inhibition of gemcitabine induced cell cycle arrest in human HT-29 cells assessed as disappearance of cyclin B level at 360 nM measured after 24 hrs by immunoblot analysis relative to control; format: functional
[16] = test system: COLO 205; assay: Antitumor activity against human COLO 205 cells xenografted in athymic nude mouse model assessed as potentiated tumor growth inhibition at 15 mg/kg, ip administered once daily in presence of gemcitabine relative to control; format: functional; settings: read-out: TGI
[17] = test system: COLO 205; assay: Antitumor activity against human COLO 205 cells xenografted in athymic nude mouse model assessed as potentiated tumor growth inhibition at 30 mg/kg, ip administered once daily in presence of gemcitabine relative to control; format: functional; settings: read-out: TGI
[18] = test system: COLO 205; assay: Antitumor activity against human COLO 205 cells xenografted in athymic nude mouse model assessed as tumor growth delay by measuring test to control tumor ratio at 4 mg/kg, ip administered once daily in presence of gemcitabine (Gemcitabine alone = 8 %); format: functional
[19] = test system: COLO 205; assay: Antitumor activity against human COLO 205 cells xenografted in athymic nude mouse model assessed as tumor growth delay by measuring test to control tumor ratio at 4 mg/kg, ip administered twice daily in presence of gemcitabine (Gemcitabine alone= 8%); format: functional
[20] = test system: COLO 205; assay: Antitumor activity against human COLO 205 cells xenografted in athymic nude mouse model assessed as tumor growth delay by measuring test to control tumor ratio at 40 mg/kg, ip administered twice daily in presence of gemcitabine (Gemcitabine alone= 8%); format: functional
[21] = test system: COLO 205; assay: Antitumor activity against human COLO 205 cells xenografted in athymic nude mouse model assessed as tumor growth delay by measuring test to control tumor ratio at 30 mg/kg, ip administered twice daily in presence of gemcitabine (Gemcitabine alone = 3%); format: functional
[22] = test system: COLO 205; assay: Antitumor activity against human COLO 205 cells xenografted in athymic nude mouse model assessed as gross log cell kill at 24 mg/kg, ip administered twice daily in presence of gemcitabine (Gemcitabine alone = 0.5%); format: functional
[23] = test system: COLO 205; assay: In vivo inhibition of Chk1 in athymic nude mouse xenografted with gemcitabine treated human COLO 205 cells assessed as increase in histone H3 phosphorylation level at Ser10 residues at 7.5 to 15 mg/kg by immunohistochemical analysis; format: functional, organism-based; settings: dose 7.5-15 mg/kg
[24] = test system: COLO 205; assay: In vivo inhibition of Chk1 in athymic nude mouse xenografted with gemcitabine treated human COLO 205 cells assessed as increase in phospho histone H2AX level at 7.5 to 15 mg/kg by immunohistochemical analysis; format: functional, organism-based; settings: dose 7.5-15 mg/kg

Sequence of Proto-oncogene tyrosine-protein kinase receptor Ret (P07949 whole entry): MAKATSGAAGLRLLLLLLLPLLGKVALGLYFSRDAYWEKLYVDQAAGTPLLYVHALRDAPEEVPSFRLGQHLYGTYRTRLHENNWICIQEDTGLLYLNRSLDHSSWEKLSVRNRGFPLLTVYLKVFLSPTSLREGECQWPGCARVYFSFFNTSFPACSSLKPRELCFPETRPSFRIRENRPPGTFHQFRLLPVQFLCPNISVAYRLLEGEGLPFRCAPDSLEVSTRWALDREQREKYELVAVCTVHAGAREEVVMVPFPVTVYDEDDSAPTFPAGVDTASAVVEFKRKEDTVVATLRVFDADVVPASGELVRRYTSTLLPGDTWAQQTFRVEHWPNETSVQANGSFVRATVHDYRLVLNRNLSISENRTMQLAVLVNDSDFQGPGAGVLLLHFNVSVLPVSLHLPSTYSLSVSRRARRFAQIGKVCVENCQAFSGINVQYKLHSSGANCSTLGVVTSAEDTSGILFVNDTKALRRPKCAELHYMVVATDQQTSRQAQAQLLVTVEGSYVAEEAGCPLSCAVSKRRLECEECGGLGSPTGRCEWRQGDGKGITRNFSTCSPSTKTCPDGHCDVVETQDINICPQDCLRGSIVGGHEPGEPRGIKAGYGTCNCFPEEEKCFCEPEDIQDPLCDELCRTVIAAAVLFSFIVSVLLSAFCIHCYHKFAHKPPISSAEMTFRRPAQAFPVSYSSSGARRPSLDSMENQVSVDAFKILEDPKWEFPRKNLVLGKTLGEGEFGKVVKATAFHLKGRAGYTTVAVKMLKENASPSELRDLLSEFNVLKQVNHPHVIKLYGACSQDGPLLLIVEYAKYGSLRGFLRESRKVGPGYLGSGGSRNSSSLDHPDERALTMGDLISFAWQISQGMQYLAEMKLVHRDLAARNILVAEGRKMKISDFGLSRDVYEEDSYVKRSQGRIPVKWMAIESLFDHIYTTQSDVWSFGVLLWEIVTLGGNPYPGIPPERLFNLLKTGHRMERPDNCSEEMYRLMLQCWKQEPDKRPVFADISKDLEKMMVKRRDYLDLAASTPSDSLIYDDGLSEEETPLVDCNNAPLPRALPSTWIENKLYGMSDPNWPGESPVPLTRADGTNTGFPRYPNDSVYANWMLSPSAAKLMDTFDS

**Q.** For `Cn1cc(-c2[nH]c3cc(NC(=O)[C@H](N)C4CCCCC4)cc4c3c2C=NNC4=O)cn1`, which IC50 [1] is on record?
**A.** The IC50 was 51 nM.

**Q.** What about the IC50 [2] of the same molecule?
**A.** The IC50 was 80 nM.

**Q.** What about the Cmax [3] of the same molecule?
**A.** Its Cmax is 1290 ng/mL.

**Q.** What about the EC50 [4] of the same molecule?
**A.** Its EC50 is 45 nM.

**Q.** What about the inhibition [5] of the same molecule?
**A.** Its inhibition is “Active”.

**Q.** What about the Activity [6] of the same molecule?
**A.** Its Activity is 0.1%.

**Q.** What about the viability at 0.36 µM [7] of the same molecule?
**A.** Its viability at 0.36 µM is 93%.

**Q.** And the viability at 0.54 µM [8]?
**A.** The viability at 0.54 µM was 83%.

**Q.** And the IC50 [9]?
**A.** The IC50 was 1800 nM.

**Q.** And the PF50 [10]?
**A.** Its PF50 is 2.1.

**Q.** What about the PF50 [11] of the same molecule?
**A.** Its PF50 is 1.5.

**Q.** And the PF50 [12]?
**A.** The PF50 was 2.4.

**Q.** What about the PF50 [13] of the same molecule?
**A.** The PF50 was 1.9.

**Q.** And the Activity [14]?
**A.** Its Activity is “Active”.

**Q.** What about the inhibition at 0.36 µM [15] of the same molecule?
**A.** The inhibition at 0.36 µM was 100%.

**Q.** And the inhibition in vivo at 15 mg/kg [16]?
**A.** Its inhibition in vivo at 15 mg/kg is 45%.

**Q.** And the inhibition in vivo at 30 mg/kg [17]?
**A.** The inhibition in vivo at 30 mg/kg was 41%.

**Q.** What about the T/C [18] of the same molecule?
**A.** Its T/C is 8.

**Q.** And the T/C [19]?
**A.** The T/C was 8.

**Q.** And the T/C [20]?
**A.** Its T/C is 20.

**Q.** What about the T/C [21] of the same molecule?
**A.** Its T/C is 9.75.

**Q.** And the LCK [22]?
**A.** The LCK was 0.75.

**Q.** What about the inhibition [23] of the same molecule?
**A.** Its inhibition is “Active”.

**Q.** And the inhibition [24]?
**A.** The inhibition was “Active”.

— ChEMBL document CHEMBL5705884, “Breaching the DNA damage checkpoint via PF-00477736, a novel small-molecule inhibitor of checkpoint kinase 1” (Mol Cancer Ther, 2008)
